Measurements taken from patent EP0253697A2, “Medicament and medicament compositions for the treatment of infective diseases due to viruses, as well as for the treatment of tumours” (INSTITUT NATIONAL DE LA SANTE ET DE LA RECHERCHE MEDICALE …, priority 1986, dated 1988).

Tests used:
[1] = test system: cellules de mélanome; test: Survival of melanoma cells versus dose and contact time; format: cell-based
Method: Sur une lignée de mélanome prise comme exemple, on peut voir que l'effet inhibiteur est dépendant de la dose (Figure 3), mais également du temps de contact. Dès 2 heures de contact des cellules de mélanome avec 1,5 mM de GAH, il y a mort cellulaire, qui s'amplifie jusqu'à 72 heures de culture des cellules tumorales, puis les cellules échappent à cette inhibition (Figure 4). […] Ainsi, pour les cellules de mélanome, un contact de 30 heures avec 1,5 mM de GAH est nécessaire pour avoir une mort cellulaire complète à 72 heures, alors que 50 heures de contact sont nécessaires avec une concentration de drogue de 400 µM (Figure 5).
- Abscisses : temps de contact des cellules de mélanome avec différentes concentrations de GAH : • 400 µM; ○ 1 mM; . 1,5 mM - Ordonnées : pourcentage de survie des cellules de mélanome à 72 heures.

[2] = test system: virus de l'herpès simplex du type 1 (HSV.1); test: Inhibition of viral lysis plaque formation (PFU) in infected VERO cells; format: cell-based; conditions: in vitro, DNA virus
Description: (§1) Des cellules VERO (lignée de cellules "normales") ont été infectées par le virus de l'herpès simplex du type 1 (HSV.1) ou par le virus de la rougeole à une multiplicité d'infection d'une particule infectieuse par cellule. Les cellules infectées ont été traitées par GAH aux doses indiquées sur la Figure 1. L'inhibition observée, emprimée en logarithme d'inhibition de la formation de plages de lyse cellulaire par le virus (PFU-"Plage Forming Unit") par ml de milieu, semble apparaître brusquement après avoir dépassé une concentration "seuil" située autour de 600 lim. par litre de milieu cellulaire. Le fait que la concentration optimale soit la même pour les deux virus testés, qui, comme indiqué ci-dessus, sont très différents, est en faveur d'une action de la substance au niveau cellulaire, action capable d'éveiller un état de résistance envers les virus infectants.

[3] = test system: virus de la rougeole; test: as above; format: cell-based; conditions: in vitro, RNA virus
Description: as §1

[4] = test system: leucémie L1 210; test: DNA synthesis (3H-thymidine incorporation) in tumour cells; format: cell-based, murin; conditions: Figure 2
Description: (§2) L'effet du GAH a été étudié sur diverses lignées cellulaires obtenues à partir de tumeurs humaines et fibroblastes de poumon foetal humain (MRC5).
- Abscisses : temps de contact des différentes cellules avec le le L-glutamique acide y monohydroxamate : 1-L1210 • 2 - BL60 • 3 - NterDau • 4-B16
(§3) - Ordonnées : incorporation de ^3H-thymidine (comptage de la radioactivité correspondante en coups par minute (CPM).

[5] = test system: cellules de lymphome murin RBL5; test: as above; format: cell-based
[6] = test system: leucémie L1 210; test: Survival of mice inoculated with L1 210 leukaemia; format: in vivo, souris DBA/2; conditions: 5x10^5 cells IP; 1200 mg/kg/day days 1-4, 600 mg/kg/day days 8-10; Figure 8
Description: (§4) Compte tenu des résultats in vitro, l'activité anti-tumorale de GAH a été étudiée sur deux modèles tumoraux murins : leucémie L1 210 et mélanome B16.
Pour la leucémie L1 210, maintenue par passage intra-péritonéal chez la souris DBA/2, le nombre de cellules utilisées pour les essais thérapeutiques est de 5.10^5 cellules par souris.
(§5) Les résultats positifs qui ont été obtenus sont exprimés par le pourcentage d'augmentation de la survie, considérant comme significative une augmentation de 30%.
Courbe de survie des souris DBA/2-B6D2F1 inoculées avec L1 210 (5x10^5 cellules dans 0,5 ml IP) après traitement avec L-glutamique acide monohydroxamate : 1200 mg/kg dose/jour, les jours 1, 2, 3, 4; et 600 mg/kg dose/jour, les jours 8, 9, 10 (les groupes sont constitués de 8 souris.). - Abscisses : jours après l'inoculation de cellules tumorales - Ordonnées : pourcentage de souris vivantes.

[7] = test system: colonies métas- tasiantes du mélanome B 16; test: Cytolytic effect on cells isolated from metastases in vitro; format: cell-based
[8] = test system: cellules normales MRC5; test: Growth, DNA synthesis and survival of normal MRC5 cells; format: cell-based, humain
Description: as §2
(§6) La croissance des cellules MRC5 dans un milieu déprimé en glutamine est aussi arrêtée, avec, cependant, un décalage dans l'inhibition par rapport à l'effet du GAH. […] Il s'agit probablement de deux mécanismes d'action différents.
(§7) • - Abscisses : temps de culture des cellules MRC5 : 1. avec différentes conditions de culture • O témoin MRC5 milieu normal • milieu déprimé en glutamine • ? milieu normal avec D-glutamyl acide (GAH 2. après élimination des différentes drogues et addition • ? milieu normal MRC5 témoin • milieu avec glutamine 2mM • ? milieu normal • ? milieu GAH + glutamine 2mM • - Ordonnées : nombre de cellules vivantes.

[9] = as above; format: cell-based, humain; conditions: human; normal MRC5 cells, Figure 6; read-out: doses sans mort cellulaire
Description: as §2, §6, §7

[10] = test system: cellules (infectées ou non); test: Toxicity for the cells (infected or not) in the antiviral experiments; format: cell-based
[11] = test system: mélanome B16; test: Survival of mice inoculated with B16 melanoma; format: in vivo, souris; conditions: 10^6 cells IP; 1200 mg/kg/day days 1-4, 600 mg/kg/day days 8-11, 300 mg/kg/day days 16-19; Figure 9
Description: as §4
Pour le mélanome B16, maintenu par passage souscutanés successifs, la dose injectée par voie intra-péritonéale pour les essais thérapeutiques est de 10^6 cellules par souris.
as §5
Courbe de survie des souris C5b16 inoculées avec les cellules de mélanome B16 (10^6 cellules dans 0,5 ml IP)après traitement avec GAH : 1200 mg/kg dose/jour, les jours 1, 2, 3, 4; 600 mg/kg dose/jour, les jours 8, 9, 10, 11; et 300 mg/kg dose/jour, les jours 16, 17, 18, 19 (les groupes traités et non traités sont de 6 animaux). - Abscisses : jours après l'inoculation de cellules tumorales - Ordonnées : pourcentage de souris vivantes

[12] = test system: virus du sarcome de Rous (RSV, souche B77); test: Reverse transcriptase activity in culture medium and focus formation, infected chicken fibroblasts; format: cell-based, poulet
Description: Il a été également montré que le GAH provoque aussi une importante inhibition de la multiplication des virus appartenant à la famille des rétrovirus (virus à ARN possédant une activité dite de transcriptase inverse, c'est-à-dire une ADN polymé- rase-ARN dépendante). Ceci a été démontré avec le virus du sarcome de Rous (RSV, virus oncogène, sous-famille oncovirinae) et avec le virus visna (virus lytique, sous-famille lentivirinae à laquelle appartient aussi le H.I.V.). • 1 - Des fibroblastes de poulet, en passage secondaire, sont ensemencés et traités, ou non, par le GAH à diverses concentrations. Ensuite, les cellules sont infectées par le RSV (souche B77). Le milieu de culture des cellules infectées est recueilli à différents temps post- infection et l'activité transcriptase inverse a été mesurée, cette mesure étant considérée généralement comme un reflet de la libération des particules virales dans les milieux de culture. […] Il est intéressant de signaler que, comme dans le cas des hespesvirus, l'activité antivirable apparaît à la même dose de GAH capable de provoquer l'arrêt de la prolifération cellulaire, ce qui est en accord avec la notion d'une action du GAH agissant en premier lieu au niveau cellulaire.

[13] = test system: virus Visna; test: Reverse transcriptase activity, infected sheep embryo fibroblasts; format: cell-based, mouton; conditions: GAH present at the time of infection, versus untreated cells; Figure 1B
[14] = test system: cellules de tumeurs de Burkitt; test: DNA synthesis (3H-thymidine incorporation) in tumour cells; format: cell-based, humain
Description: as §2, §3

[15] = test system: carcinome de tumeur mammaire (lignée MCF7); test: as above; format: cell-based, humain
Description: as §2, §3

[16] = test system: llgnée de tumeur d' Ewing; test: as above; format: cell-based, humain
Description: as §2, §3

[17] = test system: mélanome; test: as above; format: cell-based, humain
Description: as §2, §3

[18] = test system: carcinome du colon (lignée HT29); test: as above; format: cell-based, humain
Description: as §2, §3

N[C@@H](CCC(=O)NO)C(=O)O [GAH, L-glutamique acide y monohydroxamate]
temps de contact nécessaire pour une mort cellulaire complète à 72 heures ([1]; 400 µM GAH (Figure 5)): 50 heures
temps de contact nécessaire pour une mort cellulaire complète à 72 heures ([1]; 1,5 mM GAH (Figure 5)): 30 heures
temps de contact à partir duquel il y a mort cellulaire ([1]; 1,5 mM GAH, death from this contact time on, increasing up to 72 h of culture (Figure 4)): 2 heures
inhibition du virus [2]: inhibition très significative
inhibition du virus [3]: inhibition très significative
effet sur la synthèse de l'ADN [4]: effet inhibiteur total
effet sur la synthèse de l'ADN [5]: effet inhibiteur total
activité antitumorale (augmentation de la survie) [6]: activité antitumorale
effet sur des cellules isolées de métastases [7]: effet cytolytique
synthèse de l'ADN des cellules normales MRC5 [8]: arrêt de synthèse de l'ADN
réversion de la croissance par addition de glutamine ([8]; GAH-treated MRC5 cells, glutamine 2mM added (Figure 7)): ne reverse pas
effet sur les cellules normales ([8]; reversible after removal of the drug): effet cytostatique
MNTC [9]: ≤ 800 µM
toxicité pour les cellules [10]: faible taux, voire l'absence, de toxicité
activité antitumorale (augmentation de la survie) [11]: activité antitumorale
activité transcriptase inverse dans le milieu de culture ([12]; GAH 1mM present at the time of infection, chicken fibroblasts, Figure 1A): indétectable
formation de foyers de cellules transformées par le RSV ([12]; GAH-treated cultures, untreated controls show foci after three days): aucune formation de foyers
activité transcriptase inverse [13]: diminution considérable
effet sur la synthèse de l'ADN [14]: effet inhibiteur total
effet sur la synthèse de l'ADN [15]: effet inhibiteur total
effet sur la synthèse de l'ADN [16]: effet inhibiteur total
effet sur la synthèse de l'ADN [17]: effet inhibiteur total
effet sur la synthèse de l'ADN [18]: effet inhibiteur total
